# Source: patent publication US20230302083A1, “HIGHLY-NETWORKED C[…] COMPOSITION” (priority 2020, published 2023)
# Columns and labels:
# HLA class I alleles = format: cell-based, human
# HLA-A*0301 = molecular target: T1, HLA-A*0301 (Homo sapiens, UniProt P04439); assay: HLA class I-peptide stability assay in TAP-deficient HLA-A*0301 mono-allelic cells; format: cell-based
# T1 construct: expressed in transfected cells; host or cells: TAP-deficient (CRISPR/Cas9) HLA-A*0301 mono-allelic 721.221 human B cells
sequence,measurement,setting,value
NPLLYDANYFL [B81 COVID 14],50% Experimental Binder,HLA class I alleles,YES
YQDVNCTEV [B39 COVID 11],50% Experimental Binder,HLA class I alleles,YES
MIAQYTSAL [B7 COVID 16],stabilization of HLA class I alleles,HLA class I alleles,stabilized a number of HLA class I alleles
RVIHFGAGSDK [A3 COVID 3],HLA-A*0301 stabilization,HLA-A*0301,HLA stabilizing
KGIYQTSNFR [A3 COVID 15],HLA-A*0301 stabilization,HLA-A*0301,HLA stabilizing
